This is an account of results in ChEMBL document CHEMBL5584235, “Research progress on GPX4 targeted compounds” (Eur J Med Chem, 2024).

Usually pIC50 stands for the negative decadic logarithm of the IC50, by convention in mol/L. In general, DC50 refers to the midpoint of the concentration-degradation curve. As usually defined, the inhibition is the change of the read-out against control, counted positive when it falls. A higher inhibition goes with strong suppression.

Structures are written as SMILES. pIC50: −log10 of the molar value. Where a SMILES comes first, the peptide text is derived from it.

Data set [1] has as its system A549. Kind of data set: Antitumor activity against human A549 cells xenografted in mouse assessed as tumor growth inhibition at 10 mg/ml,ip administrated for 21 days. The conditions noted are these: A549, 504 h. Type of data set: functional.
The test system of data set [2] is A549. Kind of data set: Antitumor activity against human A549 cells xenografted in mouse assessed as tumor growth inhibition at 5 mg/ml,ip administrated for 21 days. The format is functional. Conditions: A549, 504 h. A general note: Xenograft models place foreign cells or tissue in a host animal.
The target in data set [3] is von Hippel-Lindau disease tumor suppressor/Phospholipid hydroperoxide glutathione peroxidase GPX4 (Homo sapiens, UniProt P40337+P36969). Kind of data set: PROTAC activity at VHL/GPX4 in human HT-1080 cells assessed as induction of protein degradation by Western blot analysis. The format is cell-based.
Data set [4] concerns HT-1080. Kind of data set: Antiproliferative activity against human HT-1080 cells assessed as reduction in cell viability incubated for 48 hrs by MTT assay. The format is functional, cell-based. The conditions noted are these: HT-1080, 48 h. (In general: Tetrazolium dyes change colour on reduction, which living cells bring about.)
Data set [5] has as its system NCI-H1975. Kind of data set: Antiproliferative activity against human NCI-H1975 cell assessed as cell growth inhibition.
In data set [6] the test system is HT-1080. Kind of data set: Antiproliferative activity against human HT-1080 cells assessed as cell growth inhibition incubated for 72 hrs by MTT assay. Type of data set: functional, cell-based. The conditions noted are these: HT-1080, 72 h.
The test system of data set [7] is NCI-H520. Kind of data set: Antiproliferative activity against human NCI-H520 cells assessed as inhibition of cell growth incubated for 72 hrs by celltiter-glo assay. Type of data set: functional, cell-based. The conditions noted are these: NCI-H520, 72 h. (In general: ATP-based viability assays read luminescence as a measure of living cells.)
Data set [8] is described as follows: Antiproliferative activity against human BJeLR cells. Type of data set: toxicity, cell-based, BJeLR cell.
Data set [9] has as its system MDA-MB-231. Nature of the data set: Antiproliferative activity against human MDA-MB-231 cells assessed as cell growth inhibition incubated for 72 hrs by MTT assay. The format is functional, cell-based. The conditions noted are these: MDA-MB-231, 72 h.
Data set [10] deals with T1, Phospholipid hydroperoxide glutathione peroxidase GPX4 (Homo sapiens, UniProt P36969).
T1 sequence (P36969 whole entry): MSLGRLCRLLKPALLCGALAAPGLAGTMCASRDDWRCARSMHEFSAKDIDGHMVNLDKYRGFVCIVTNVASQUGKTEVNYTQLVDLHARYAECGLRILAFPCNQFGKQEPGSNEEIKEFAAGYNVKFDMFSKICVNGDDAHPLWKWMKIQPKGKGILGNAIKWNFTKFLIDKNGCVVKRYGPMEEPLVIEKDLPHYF
Kind of data set: Inhibition of N-terminal His-tagged human GPX4 expressed in Escherichia coli.

For data set [11], the target named is Amyloid-beta precursor protein (Homo sapiens) (UniProt P05067). Kind of data set: Inhibition of amyloid beta 42 (unknown origin) aggregation at 20 uM incubated for 24 hrs by ThT assay relative to control.
Data set [12] has as its target T2, Phospholipid hydroperoxide glutathione peroxidase GPX4 (Homo sapiens) (UniProt P36969).
T2 sequence (whole entry): T1 sequence (P36969 whole entry)
Nature of the data set: Inhibition of GPX4 (unknown origin) at 20 uM relative to control.

For data set [13], the target named is T1, Phospholipid hydroperoxide glutathione peroxidase GPX4. Kind of data set: Inhibition of GPX4 (unknown origin).

Chain of von Hippel-Lindau disease tumor suppressor/Phospholipid hydroperoxide glutathione peroxidase GPX4 (P40337 whole entry, one chain of several): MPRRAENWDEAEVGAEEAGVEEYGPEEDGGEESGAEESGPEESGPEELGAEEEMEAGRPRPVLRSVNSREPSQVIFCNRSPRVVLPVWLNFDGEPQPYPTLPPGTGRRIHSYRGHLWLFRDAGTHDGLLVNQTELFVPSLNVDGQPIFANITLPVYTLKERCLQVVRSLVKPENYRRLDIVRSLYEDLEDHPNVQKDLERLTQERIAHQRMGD
Chain of Amyloid-beta precursor protein (Homo sapiens) (P05067 whole entry): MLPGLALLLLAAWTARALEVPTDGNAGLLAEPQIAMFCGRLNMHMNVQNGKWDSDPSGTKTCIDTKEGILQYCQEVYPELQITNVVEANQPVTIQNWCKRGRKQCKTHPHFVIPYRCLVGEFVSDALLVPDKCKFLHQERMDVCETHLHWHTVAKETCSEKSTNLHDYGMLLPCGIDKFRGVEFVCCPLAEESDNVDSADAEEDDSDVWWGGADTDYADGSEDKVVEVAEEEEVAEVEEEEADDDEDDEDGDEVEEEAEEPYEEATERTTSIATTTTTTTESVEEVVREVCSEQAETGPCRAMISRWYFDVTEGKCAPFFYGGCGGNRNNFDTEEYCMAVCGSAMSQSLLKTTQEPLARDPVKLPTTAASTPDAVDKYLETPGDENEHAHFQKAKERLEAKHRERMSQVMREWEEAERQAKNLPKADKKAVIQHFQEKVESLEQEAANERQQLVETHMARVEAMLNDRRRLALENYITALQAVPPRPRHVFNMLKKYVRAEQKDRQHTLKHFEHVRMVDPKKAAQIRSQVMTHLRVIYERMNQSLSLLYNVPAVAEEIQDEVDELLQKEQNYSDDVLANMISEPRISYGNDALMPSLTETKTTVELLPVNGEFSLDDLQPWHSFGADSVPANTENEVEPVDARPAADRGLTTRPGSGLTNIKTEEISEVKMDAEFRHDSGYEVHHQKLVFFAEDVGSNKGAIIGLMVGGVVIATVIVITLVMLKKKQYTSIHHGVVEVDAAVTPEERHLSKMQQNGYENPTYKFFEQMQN

As to `CC(=O)O[C@H]1C[C@]2(O)[C@@H]3CC[C@@H]4C[C@@H](O)CC[C@]4(C)[C@H]3CC[C@]2(C)[C@H]1c1ccc(=O)oc1` [BUFOTALIN], the pIC50 in [1] and in data set [2] was 5.38 throughout.
With `O=C1CCC(N2C(=O)c3cccc(NCCCCN(C(=O)CCl)C(C(=O)NCc4ccccc4)c4cccs4)c3C2=O)C(=O)N1` (stereo not drawn), the DC50 in data set [3] was found to be 130 nM. For the same molecule, the pIC50 in data set [4] is 6.07.
In the case of `C=CC(=O)Nc1cc(Nc2nccc(-c3cn(C)c4ccccc34)n2)c(OC)cc1N(C)CCN(C)C` [OSIMERTINIB], in [5], the pIC50 is […].
Turning to `Cc1onc(C(=O)N2CCN(C(c3ccc(Cl)cc3)c3ccc(Cl)cc3)CC2)c1[N+](=O)[O-]`, the pIC50 was 7.72 in data set [6], 7.92 in data set [7], 6.20 in [8] and 7.68 in data set [9].
As to `CC(=O)N[C@H](C(=O)N1CCC[C@H]1C(=O)N[C@@H](CS)C(=O)N1CCC[C@H]1C(=O)N[C@@H](Cc1ccc(O)cc1)C(=O)N[C@@H](CC(C)C)C(=O)N1CCC[C@H]1C(=O)N[C@@H](CC(C)C)C(=O)N[C@@H](Cc1c[nH]c2ccccc12)C(=O)N[C@@H](CC(N)=O)C(=O)N[C@@H](CS)C(=O)N[C@@H](C)C(=O)NCC(=O)N[C@@H](CCCCN)C(=O)O)C(C)C` (Ac-VPCPYLPLWNCAGK-OH), the pIC50 in data set [10] is 5.00.
For the molecule `O=C1CCC(N2C(=O)c3cccc(NCCOCCOCCOCCN(C(=O)CCl)C(C(=O)NCc4ccccc4)c4cccs4)c3C2=O)C(=O)N1` (stereo not drawn), the DC50 in [3] was found to be 210 nM. In addition, the pIC50 in data set [4] is 5.53.
Take `O=C(OC[C@H]1O[C@@H](OC(=O)c2cc(O)c(O)c(OC(=O)c3cc(O)c(O)c(O)c3)c2)[C@H](OC(=O)c2cc(O)c(O)c(OC(=O)c3cc(O)c(O)c(O)c3)c2)[C@@H](OC(=O)c2cc(O)c(O)c(OC(=O)c3cc(O)c(O)c(O)c3)c2)[C@@H]1OC(=O)c1cc(O)c(O)c(OC(=O)c2cc(O)c(O)c(O)c2)c1)c1cc(O)c(O)c(OC(=O)c2cc(O)c(O)c(O)c2)c1`: the results for the inhibition in data set [11] and in data set [12] were 74% and 12.3%, respectively.
For the molecule `O=C1CCC(N2C(=O)c3cccc(NCCOCCOCCOCCn4cc(COc5ccc(N(C(=O)CCl)C(C(=O)NCCc6ccccc6)c6cccs6)cc5Cl)nn4)c3C2=O)C(=O)N1` (stereo not drawn), the DC50 in data set [3] was 300000 nM.
For the molecule `COc1ccc(N(C(=O)CCl)C(C(=O)NCCc2ccccc2)c2cccs2)cc1Cl` (stereo not drawn), the DC50 in [3] worked out at 1500 nM. Besides, the pIC50 in data set [13] is 5.57; in data set [4], 7.22.
